pIC50: −log10 of the molar value. Read-outs that look alike come from different tables or passages of the source.
What was measured:
[1] = biological target: BACE1 (Homo sapiens, UniProt P56817); experiment: In vitro enzymatic BACE FRET (fluorescence resonance energy transfer) assay; type: biochemical
How it was run: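 Fluorescence (ex 488 nm, […]) was read after Tris addition raised pH to neutral, ending a one-hour incubation. Reaction started with 50 nM fluorophore/quencher peptide substrate in pH 4.2 acetate (0.05 M) containing 100 uM genapol and 10% DMSO final.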

[2] = tested on: Abeta peptide; experiment: In vivo inhibition of beta-secretase: Abeta peptide in CSF and brain after oral dosing; settings: orally dosed at about 30 mg/kg; for inhibition in vivo at 30 mg/kg: Rattus norvegicus, po, CSF, read-out: reduction of Abeta peptide in the CSF of the rat
Description: In Vivo Inhibition of Beta-Secretase
Several animal models, including mouse, rat, dog, and monkey, may be used to screen for inhibition of beta-secretase activity in vivo following administration of a test compound sample. Animals used in this invention can be wild type, transgenic, or gene knockout animals. For example, the Tg2576 mouse model, prepared and conducted as described in Hsiao et al., 1996, Science 274, 99-102, and other non-transgenic or gene knockout animals are useful to analyze in vivo inhibition of Amyloid beta peptide (Abeta) production in the presence of inhibitory test compounds. Generally, 2 to 18 month old Tg2576 mice, gene knockout mice or non-transgenic animals are administered test compounds formulated in vehicles, such as cyclodextran, phosphate buffers, hydroxypropyl methylcellulose or other suitable vehicles. […] A separate group of animals receive 2% hydroxypropyl methylcellulose, 1% Tween80 alone, containing no test compound, and serve as a vehicle-control group. At the end of the test period, animals are sacrificed and brain tissues, plasma or cerebrospinal fluid are collected. Brains are either homogenized in 10 volumes (w/v) of 0.2% diethylamine (DEA) in 50 mM NaCl (Best et al., 2005, Journal of Pharmacology and Experimental Therapeutics, 313, 902-908), or in 10 volumes of 0.5% TritonX-100 in Tris-buffered saline (pH at about 7.6). Homogenates are centrifuged at 355,000 g, 4° C. for 30 minutes. CSF or brain supernatants are then analyzed for the presence of Abeta peptide by specific sandwich ELISA assays based on ECL (Electrochemiluminescence) technology. For example, rat Abeta40 is measured using biotinylated-4G8 (Signet) as a capture antibody and Fab40 (an in-house antibody specific to the C-terminal of Abeta40) as a detection antibody. For example, 4 hours after administration of 30 mg/kg oral dose of the test compound in 2% hydroxypropyl methylcellulose, 1% Tween80 (pH2.2) to 200 g male Sprague Dawley rats, Abeta peptide levels are measured for reduction by X % and Y % in cerebrospinal fluid and brain, respectively, when compared to the levels measured in the vehicle-treated or control […].
Actual vehicles used: Oral: 2% HPMC, 1% Tween80, pH 2.2
• IV: 5% EtOH, 45% Propylene glycol in 5% Dextrose

[3] = tested on: Cells stably expressing Amyloid Precursor Protein (APP); experiment: In vitro BACE cell-based assay (HEK cell assay): Aβ40 in conditioned medium by sandwich ELISA
How it was run: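 Secreted Aβ40 was quantified by time-resolved fluorescence sandwich ELISA, capturing with pAb40 for 3 h at 4 °C and detecting with biotinylated 6E10 for 2 h at 4 °C. Media came from APP-expressing cells exposed 24 h to compounds (10-point series from 100 or 10 μM, 0.1% DMSO); IC50 derived from percent of control.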

[4] = Microsomal stability assay, rat liver microsomes; type: in vitro ADME
Description: (§1) Microsomal Stability Assay

[5] = biological target: CYP3A4 (CYP3A) (Homo sapiens, UniProt P08684); experiment: CYP3A inhibition assay (midazolam, pooled human liver microsomes); type: in vitro ADME; settings: human, pooled human liver microsomes, pH 7.4, probe midazolam (printed as about […]); read-out: 3A4 IC50
[6] = Microsomal stability assay, human liver microsomes; type: in vitro ADME
Description: as §1

[7] = biological target: CYP3A (Homo sapiens, UniProt P08684); experiment: CYP3A inhibition assay (midazolam, pooled human liver microsomes); type: in vitro ADME; settings: microsomes
[8] = Homo sapiens, HEK293, 24 h, Aβ40 in conditioned medium after 24 h incubation

Sequence of BACE1 (P56817 46-501, species assumed): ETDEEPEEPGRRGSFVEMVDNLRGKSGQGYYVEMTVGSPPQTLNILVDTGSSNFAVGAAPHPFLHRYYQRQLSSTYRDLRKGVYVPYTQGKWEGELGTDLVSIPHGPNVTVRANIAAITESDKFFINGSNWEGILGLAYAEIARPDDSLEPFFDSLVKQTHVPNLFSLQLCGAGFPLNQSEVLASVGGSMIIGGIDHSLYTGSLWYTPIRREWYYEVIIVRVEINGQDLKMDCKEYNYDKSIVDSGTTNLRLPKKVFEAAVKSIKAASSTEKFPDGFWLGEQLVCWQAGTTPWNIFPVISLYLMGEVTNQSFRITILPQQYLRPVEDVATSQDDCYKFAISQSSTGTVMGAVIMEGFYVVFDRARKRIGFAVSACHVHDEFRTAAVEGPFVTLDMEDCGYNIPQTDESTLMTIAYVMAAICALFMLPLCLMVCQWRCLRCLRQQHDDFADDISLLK
Sequence of CYP3A (P08684 2-503): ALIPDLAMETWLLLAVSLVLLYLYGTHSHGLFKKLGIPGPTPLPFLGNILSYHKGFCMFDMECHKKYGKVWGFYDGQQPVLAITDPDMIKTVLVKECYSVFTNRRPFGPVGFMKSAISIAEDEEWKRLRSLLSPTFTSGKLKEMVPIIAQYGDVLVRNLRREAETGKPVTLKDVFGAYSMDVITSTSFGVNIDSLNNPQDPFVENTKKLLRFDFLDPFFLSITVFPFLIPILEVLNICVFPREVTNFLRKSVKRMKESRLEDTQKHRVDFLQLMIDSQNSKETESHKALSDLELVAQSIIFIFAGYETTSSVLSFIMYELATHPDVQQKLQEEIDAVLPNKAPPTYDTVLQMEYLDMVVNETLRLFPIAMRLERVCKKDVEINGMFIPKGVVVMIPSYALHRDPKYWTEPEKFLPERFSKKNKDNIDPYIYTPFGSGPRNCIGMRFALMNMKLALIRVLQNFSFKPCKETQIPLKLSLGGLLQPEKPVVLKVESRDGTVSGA
Sequence of CYP3A4 (CYP3A) (P08684 2-503): as above

Row | Compound | pIC50 [1] | pIC50 [3, 8] | inhibition in vivo at 30 mg/kg [2] [%] | other results
1 | C=CC[C@H](NC(=O)COC)[C@H](O)CN[C@H]1CC2(CCC2)Oc2c1cc(CC(C)(C)C)nc2NC [Example 47, N-((1S)-1-((1R)-2-(((4′S)-6′-(2,2-dimethylpropyl)-8′-(methylamino)-3′,4′-dihydrospiro[cyclobutane-1,2′-pyrano[2,3-c]pyridin]-4′-yl)amino)-1-hydroxyethyl)-3-buten-1-yl)-2-(methyloxy)acetamide] | 6.79 | 7.42 | – | reduction of Abeta peptide in the brain of the rat ([2]; brain): ~25%
2 | C=CC[C@H](NC(=O)CF)[C@H](O)CN[C@H]1CC2(CCC2)Oc2ncc(CC(C)(C)C)cc21 [Example 90, N-((1S)-1-((1R)-2-(((4′S)-6′-(2,2-dimethylpropyl)-3′,4′-dihydrospiro[cyclobutane-1,2′-pyrano[2,3-b]pyridin]-4′-yl)amino)-1-hydroxyethyl)-3-buten-1-yl)-2-fluoroacetamide] | 7.17 | – | ≥ 5 | –
3 | C=CC[C@H](NC(C)=O)[C@H](O)CN[C@H]1CC2(CCC2)Oc2c1cc(CC(C)(C)C)nc2NC [Example 44, N-((1S)-1-((1R)-2-(((4′S)-6′-(2,2-dimethylpropyl)-8′-(methylamino)-3′,4′-dihydrospiro[cyclobutane-1,2′-pyrano[2,3-c]pyridin]-4′-yl)amino)-1-hydroxyethyl)-3-buten-1-yl)acetamide] | 7.19 | 7.70 | ≥ 5 | –
4 | C=CC[C@H](NC(=O)COC)[C@H](O)CN[C@H]1CC2(CCC2)Oc2c(-c3cnc[nH]3)cc(CC(C)(C)C)cc21 [compound 218, N-((1S)-1-((1R)-2-(((4S)-6-(2,2-dimethylpropyl)-8-(1H-imidazol-5-yl)-3,4-dihydrospiro[chromene-2,1′-cyclobutan]-4-yl)amino)-1-hydroxyethyl)-3-buten-1-yl)-2-methoxyacetamide] | – | – | – | RLM [4]: 185 µL/min/mg; pIC50 ([1]; read-out: BACE 1 FRET assay): 6.75; IC50 at 10 min [5]: 0.3 µM; pIC50 ([3]; Homo sapiens, HEK293): 7.15; HLM [6]: 215 µL/min/mg
5 | N-((1S)-1-((1R)-2-(((4′S)-6′-(2,2-dimethylpropyl)-8′-(1-methyl-1H-imidazol-2-yl)-3′,4′-dihydrospiro[cyclobutane-1,2′-pyrano[2,3-c]pyridin]-4′-yl)amino)-1-hydroxyethyl)-3-buten-1-yl)-2-methoxyacetamide [Example 239] | – | – | – | RLM [4]: 340 µL/min/mg; pIC50 ([1]; read-out: BACE 1 FRET assay): 6.68; pIC50 [7]: 5.96; pIC50 [3]: 5.82; HLM [6]: 311 µL/min/mg

Now from value to compound, other results behind:

Row | pIC50 [1] | pIC50 [3, 8] | Compound | inhibition in vivo at 30 mg/kg [2] [%] | other results
6 | 7.17 | – | C=CC[C@H](NC(=O)CCOC)[C@H](O)CN[C@H]1CC2(CCC2)Oc2ncc(CC(C)(C)C)cc21 [Example 91, N-((1S)-1-((1R)-2-(((4′S)-6′-(2,2-dimethylpropyl)-3′,4′-dihydrospiro[cyclobutane-1,2′-pyrano[2,3-b]pyridin]-4′-yl)amino)-1-hydroxyethyl)-3-buten-1-yl)-3-(methyloxy)propanamide] | ≥ 5 | –
7 | 7.15 | 6.88 | CC#CC[C@H](NC(=O)COC)[C@H](O)CN[C@H]1CC2(CCC2)Oc2ncc(CC(C)(C)C)cc21 [Example 89, N-((1S)-1-((1R)-2-(((4′S)-6′-(2,2-dimethylpropyl)-3′,4′-dihydrospiro[cyclobutane-1,2′-pyrano[2,3-b]pyridin]-4′-yl)amino)-1-hydroxyethyl)-3-pentyn-1-yl)-2-(methyloxy)acetamide] | ≥ 5 | –
8 | 7.80 | 7.46 | C=CCC(NC(=O)COC)C(O)CNC1CC2(CC(O)C2)Oc2ncc(CC(C)(C)C)cc21 [Example 107, N-((1S)-1-((1R)-2-(((1s,3S,4′S)-6′-(2,2-dimethylpropyl)-3-hydroxy-3′,4′-dihydrospiro[cyclobutane-1,2′-pyrano[2,3-b]pyridin]-4′-yl)amino)-1-hydroxyethyl)-3-buten-1-yl)-2-(methyloxy)acetamide] | ≥ 5 | –
9 | 6.96 | 6.73 | CC#CC[C@H](NC(=O)[C@@H](C)OC)[C@H](O)CN[C@H]1CC2(CCC2)Oc2ncc(CC(C)(C)C)cc21 [Example 87, (2R)-N-((1S)-1-((1R)-2-(((4′S)-6′-(2,2-dimethylpropyl)-3′,4′-dihydrospiro[cyclobutane-1,2′-pyrano[2,3-b]pyridin]-4′-yl)amino)-1-hydroxyethyl)-3-pentyn-1-yl)-2-(methyloxy)propanamide] | ≥ 5 | –
10 | 7.70 | 7.14 | CC#CCC(NC(=O)C1CCC(=O)O1)C(O)CNC1CC2(CCC2)Oc2ncc(CC(C)(C)C)cc21 [Example 88, (S)-N((2R,3S)-1((S)-2,2-spirocyclobutane-6-neopentyl-3′,4′-dihydro-2H-pyrano[2,3-b]pyridin]-4′-ylamino)-2-hydroxyhept-5-yn-3-yl)-5-oxo-tetrahydrofuran-2-carboxamide.] | ≥ 5 | –

Reference: patent US8633315B2, “Substituted hydroxyethyl amine compounds as beta-secretase modulators and methods of use” (Amgen Inc., priority 2007, dated 2014)
